Test results taken from patent publication US10165776B2, “Substituted pyrazolylpyrazole derivative and use of same as herbicide” (KYOYU AGRI CO., LTD., priority 2015, dated 2019).

What was measured:
Digitaria ciliaris = experiment: Weed foliar treatment test (Test 4, 4.0 to 5.0 leaf stage); assay type: in vivo; settings: 10 g a.i./10 a; foliar spray at 4.0 to 5.0 leaf stage of Digitaria ciliaris (plant height 10 cm to 15 cm); 20 days at 25° C.
Description: (§1) Field soil was filled into a 1/4500 are pot followed by seeding with Digitaria ciliaris and Galinsoga parviflora, covering with soil and cultivating in a glass greenhouse at an average atmospheric temperature of 25° C. Wettable powders of Target Compound (I) shown in Table 1 prepared in compliance with the preparation examples were diluted with water to the prescribed amount of chemical and uniformly sprayed onto the weeds using 100 liters of sprayed water per 10 are when Digitaria ciliaris had grown to the 4.0 to 5.0 leaf stage (plant height: 10 cm to 15 cm). After treating for 20 days in a glass greenhouse at an average atmospheric temperature of 25° C., the herbicidal efficacy thereof was investigated. Evaluation of herbicidal efficacy was carried out in the same manner as the above-mentioned Test Example 1.

Galinsoga parviflora = experiment: as above; assay type: in vivo; settings: 10 g a.i./10 a; foliar spray at 4.0 to 5.0 leaf stage of Digitaria ciliaris (plant height 10 cm to 15 cm); 20 days at 25° C.
Description: as §1

Structure (SMILES) | herbicidal efficacy, Digitaria ciliaris (Digitaria ciliaris) | herbicidal efficacy, Galinsoga parviflora (Galinsoga parviflora)
N#Cc1cnn(-c2nn3c(c2Cl)CCC3)c1NC(=O)Cc1ccccc1 [Compound 2] | 10 (10: 100%) | 10 (10: 100%)
Cc1ccc(CC(=O)Nc2c(C#N)cnn2-c2nn3c(c2Cl)CCCC3)cc1 [Compound 13] | 10 (10: 100%) | 10 (10: 100%)
N#Cc1cnn(-c2nn3c(c2Cl)CCCC3)c1NC(=O)Cc1ccc(Cl)cc1Cl [Compound 18] | 10 (10: 100%) | 10 (10: 100%)
N#Cc1cnn(-c2nn3c(c2Cl)CCCC3)c1NC(=O)Cc1cccc(Cl)c1 [Compound 12] | 10 (10: 100%) | 10 (10: 100%)
COc1cccc(CC(=O)Nc2c(C#N)cnn2-c2nn3c(c2Cl)CCCC3)c1 [Compound 10] | 10 (10: 100%) | 10 (10: 100%)
COc1ccc(CC(=O)Nc2c(C#N)cnn2-c2nn3c(c2Cl)CCCC3)cc1 [Compound 14] | 10 (10: 100%) | 10 (10: 100%)
N#Cc1cnn(-c2nn3c(c2Cl)CCCC3)c1NC(=O)Cc1ccccc1Cl [Compound 8] | 10 (10: 100%) | 10 (10: 100%)
